In patent publication US10845371B2, “Soluble MANF in pancreatic beta-cell disorders” (University of Massachusetts, priority 2012, dated 2020):

Assays:
[1] = test system: MEROS-GFP (ER redox state) in INS-1 832/13 cells; assay: MEROS-GFP ratio by fluorescent plate reader in INS-1 832/13 cells; assay type: cell-based, rat; settings: 30 minutes; H2O2 0.1 or 1 mM, DTT 0.1-10 mM, FIG. 12
Experimental: FIG. 12 is a graph of the MEROS-GFP ratio in INS-1 832/13 cells left untreated (no label), or treated with H2O2 (1 or 0.1 mM H2O2) or DTT (0.1, 0.2, 0.5, 1, 2, 5, or 10 mM DTT). The MEROS-GFP ratio was determined using a plate reader. The data shown are mean±S.D. (n=3).
The ratio between fluorescence from excitation 473 nm versus 394 nm normalized to wild-type untreated cells is called the MEROS-GFP ratio. The MEROS-GFP ratio was determined using a fluorescent plate reader. In these experiments, the INS-1 832/13 cells were plated onto a 96-well plate at 50,000 cells/well, the cells treated with H2O2 or DTT at various concentrations for 30 minutes, and the fluorescence at excitation wavelength 473 nm and emission wavelength 510 nm (for reduced MEROS-GFP) or at excitation wavelength 394 nm and emission wavelength 510 nm (for oxidized MEROS-GFP) was measured. The MEROS-GFP ratio was determined after substraction of background signal.

[2] = test system: MEROS-GFP in INS-1 832/13 cells; assay: Confocal microscopy of MEROS-GFP fluorescence; assay type: cell-based, rat; settings: 2 mM DTT, FIG. 11
Experimental: FIG. 11 is a set of four confocal microscopy images of MEROS-GFP gathered using a 476-nm excitation wavelength (bottom two panels) or a 405-nm excitation wavelength (top two panels) in INS-1 832/13 cells treated with (right two panels) or without (left two panels) 2 mM DTT.

[3] = test system: MEROS-GFP in INS-1 832/13 cells; assay: Non-reducing SDS-PAGE of AMS-modified MEROS-GFP; assay type: cell-based, rat; settings: 2 mM DTT, FIG. 13
Experimental: FIG. 13 is photograph of non-reducing polyacrylamide gel electrophoresis (PAGE) of 4-acetamido-4′-maleimidylstilbene-2, 2′-disulfonic acid (AMS)-modified MEROS-GFP in lysate from cells left untreated (left lane) or treated with 2 mM DTT (right lane). The lysates were either left untreated (−βME) (top) or were treated with β-mercaptoethanol (+βME) (bottom) prior to electrophoresis.
Additional experiments were performed to confirm that the MEROS-GFP ratio reflected changes in its redox state in vivo. In these experiments, the redox state of MEROS-GFP was monitored using non-reducing SDS-PAGE in combination with the thiol-alkylating reagent, 4-acetamido-4′-maleimidylstilbene-2, 2′-disulfonic acid (AMS). In these experiments, INS-1 832/13 cells left untreated or treated with 2 mM DTT, were lysed with 1× SDS-PAGE sample buffer containing 25 mM AMS with or without 2-β-mercaptoethanol, boiled at 95° C. for 10 minutes, electrophoresed using SDS-PAGE, and immunoblotted using an anti-GFP antibody.

[4] = test system: MEROS-GFP (ER redox state) in NSC34 cells; assay: Time course of MEROS-GFP ratio in NSC34 cells; assay type: cell-based; settings: 1 mM DTT for 10 minutes, then wash, FIG. 14
Experimental: FIG. 14 is a graph showing a time course of the MEROS-GFP ratio in NSC34 cells that are treated with 1 mM DTT for 10 minutes, and then washed. The MEROS-GFP ratio was calculated at each minute interval between one minute prior to treatment to four minutes after the wash. The bottom line represents the fluorescence observed with excitation at 473 nm, the black line represents the MEROS-GFP ratio, and the light grey line represents the fluorescence with excitation at 394 nm (n=3; S.D.).
The MEROS-GFP ratio was also monitored in DTT-treated cells at different time points.

[5] = test system: MEROS-GFP (ER redox state) in INS-1 832/13 cells; assay: MEROS-GFP ratio by flow cytometry in INS-1 832/13 cells; assay type: cell-based, rat
Experimental: FIG. 15 is fluorescence-assisted cell sorting (FACS) data of INS-1 832/13 cells stably-transfected with MEROS-GFP following no treatment or treatment with DTT (0.2, 0.5, or 10 mM DTT). The data was collected using excitation wavelengths of 488 nm and 405 nm, and an emission spectrum of 510 nm.
FIG. 16 is a histogram of FACS data of INS-1 832/13 cells stably-transfected with MEROS-GFP following no treatment or treatment with DTT (0.2 mM, 0.5 mM, or 10 mM DTT). The horizontal axis represents the MEROS-GFP ratio and the vertical axis represents the number of cells.
FIG. 17 is a graph of the median MEROS-GFP ratio in INS-1 832/13 cells stably-transfected with MEROS-GFP following no treatment or treatment with DTT (0.2, 0.5, or 10 mM DTT). The MEROS-GFP values shown are normalized to the untreated values.
FIG. 18 is two graphs showing data from FACS analysis of INS-1 832/13 cells stably-transfected with MEROS-GFP following no treatment or treatment with 1 mM H2O2 for 30 minutes. The right graph is a histogram of the MEROS-GFP ratio in INS-1 832/13 cells not treated or treated with 1 mM H202.
FIG. 19 is a graph of the median MEROS-GFP ratio calculated in INS-1 832/13 cells using FACS analysis following no treatment or treatment with tunicamycin (TM) (5 μM; 24 hours), thapsigargin (TG) (10 nM; 24 hours), TG (1 μM; 4 hours), brefeldin A (BreA) (100 ng/mL; 24 hours), or MG132 ([…]; 24 hours). […] The data are normalized to the median MEROS-GFP ratio calculated for the untreated cells.
The error bars represent ±S.D. The data are normalized to the median MEROS-GFP ratio calculated for the untreated cells.
FIG. 24 is a graph of the median MEROS-GFP ratio in INS-1 832/13 cells left untreated or treatment with human islet amyloid polypeptide (IAPP) (10 μM; 24 hours), mouse IAPP (10 μM; 24 hours), or cytokines ([…] (5 ng/mL), INFγ (100 ng/mL), and TNFα (25 ng/mL); 24 hours)). The error bars represent ±S.D. The data are normalized to the median MEROS-GFP ratio calculated for the untreated cells.
Flow cytometry was used to precisely monitor the MEROS-GFP ratio in vivo.
Experiments were performed to study the relationship between the UPR and the heterogeneity of the redox state. In these experiments, both the redox state and the activation levels of the UPR were monitored in the same cells. To achieve this, a UPR reporter gene encoding the red fluorescent protein, mCherry, driven by the human BiP promoter was constructed. […] This BiP-mCherry reporter plasmid was transfected into INS-1 832/13 cells expressing MEROS-GFP, and FACS analysis was used to monitor the MEROS-GFP ratio and the activation levels of the UPR via BiP-mCherry in the same cells (FIG. 31). The activation levels of BiP-mCherry and the MEROS-GFP ratio were monitored following the induction of ER stress. In these experiments, INS-1 832/13 cells expressing MEROS-GFP were plated onto 6-well plates, treated with each compound for indicated times, and then harvested by trypsinization. After washing with phosphate buffered saline, cells were resuspended in the 11 mM glucose-Hanks buffered salt solution. Flow cytometry analyses were performed with LSRII (BD).

[6] = test system: MEROS-GFP (ER redox state) in INS-1 832/13 cells; assay: MEROS-GFP pilot screen of 1280-compound library and follow-up screens; assay type: cell-based, rat
Experimental: A pilot screen of a 1280-compound library (MicroSource), a collection of 1,040 U.S. drugs and 240 international drugs (FIG. 39) was performed. In this experiment, INS-1 832/13 cells stably-expressing MEROS-GFP were seeded (20,000 cells/well) in black optical 96-well plates. After 24 hours, 2 μL of each compound was added using the TeMo liquid handling robot. After another 24 hours, cells were challenged with 0.2 mM DTT, a strong reducing agent, for 2 hours, and then the MEROS-GFP ratio was calculated.

[7] = test system: MEROS-GFP (ER redox state) in INS-1 832/13 cells; assay: Median MEROS-GFP ratio in thapsigargin-treated INS-1 832/13 cells; assay type: cell-based, rat; settings: 10 nM thapsigargin; 10 μM pioglitazone or 500 μg/mL TUDCA, FIG. 38 right panel
Experimental: (§1) FIG. 38 is two graphs showing the percentage of dead cells (left graph) or the median MEROS-GFP ratio (right graph) of INS-1 832/13 cells treated with DMSO alone, 10 nM thapsigargin (Tg), 10 nM Tg and 10 μM pioglitazone, or 10 nM Tg and 500 μg/mL tauroursodeoxycholic acid (TUDCA).
To investigate this possibility, two FDA-approved drugs, pioglitazone (Actos) and tauroursodeoxycholic acid (TUDCA), could affect the ER redox state and ameliorate cell death in cellular models of ER diseases. […] Another small molecule, TUDCA, has been used for treatment of gallstones and biliary cirrhosis and shown to mitigate ER stress in mouse models of diabetes.

[8] = test system: INS-1 832/13 cells; assay: Percentage of dead cells in thapsigargin-treated INS-1 832/13 cells; assay type: cell-based, rat
Experimental: as §1
FIG. 43 is a graph of the percentage of dead cells following no treatment or treatment with 10 nM thapsigargin (Tg) or treatment with 10 nM Tg and 10 nM apomorphine.

[9] = test system: INS-1 832/13 cells expressing MEROS-GFP; assay: Reduced-ER cell population (MEROS-GFP FACS) after palmitate challenge; assay type: cell-based, rat; settings: apomorphine 24 hours (10 μM per FIG. 40), then 0.5 mM palmitate 24 hours
[10] = test system: INS-1 832/13 cells; assay: Mitochondrial membrane potential (MitoProbe staining) after palmitate; assay type: cell-based, rat; settings: 0.5 mM palmitate; 10 nM or 50 nM apomorphine, FIGS. 41 and 42
[11] = test system: INS-1 832/13 cells; assay: Cell viability (propidium iodide) after palmitate; assay type: cell-based, rat; settings: 0.5 mM palmitate and 10 nM apomorphine, FIG. 42
[12] = test system: human islets; assay: Thapsigargin-mediated cell death in primary human islets (cleaved caspase 3 / PARP immunoblot); assay type: cell-based; settings: 10 nM thapsigargin; 10 nM apomorphine or 10 μM pioglitazone, FIG. 44
Experimental: (§2) FIG. 44 are two immunoblots showing the amount of cleaved caspase 3 (c-caspase3) and cleaved PARP (c-PARP) present in 10 nM thapsigargin-treated primary human islets (right immunoblot) and 2 μM doxycycline-treated WFS1 knockdown INS-1 832/13 cells (shWFS1) (left immunoblot) treated with 10 nM apomorphine or 10 μM pioglitazone.
Additional experiments were performed to determine whether apomorphine and pioglitazone can protect human islets from ER stress-mediated cell death.

[13] = test system: WFS1-knockdown β-cells (INS-1 832/13-derived); assay: Doxycycline-inducible WFS1 knockdown INS-1 832/13 cells, cellular model of Wolfram syndrome; assay type: cell-based, rat; settings: 2 μM doxycycline shWFS1; 10 nM apomorphine or 10 μM pioglitazone, FIG. 44
Experimental: as §2
Additional experiments were performed using INS-1 832/13-derived doxycycline-inducible WFS1 knockdown cells, a cellular model of Wolfram syndrome. This model was used to test whether apomorphine and pioglitazone could prevent cell death.

[14] = test system: INS-1 832/13 cells; assay: Toxicity on INS-1 832/13 cells; assay type: cell-based, rat

Compound: O[C@H](CS)[C@H](O)CS (racemic) [DTT, dithiothreitol]
- MEROS-GFP ratio (plate reader) [1]: increased the MEROS-GFP ratio in a dose-dependent manner
- MEROS-GFP fluorescence from 476 nm excitation [2]: significantly increased
- Redox state of MEROS-GFP (AMS, non-reducing SDS-PAGE) [3]: fully reduced MEROS-GFP in vivo
- Time to reduction of the ER (MEROS-GFP ratio) [4]: ER could be reduced within a few minutes
- Ratio of fluorescence from excitation at 488 nm versus 405 nm (FACS) ([5]; DTT 0.2, 0.5, 10 mM, FIGS. 15 and 16): dose dependent increase
- Median MEROS-GFP ratio (FACS) ([5]; normalized to untreated, DTT 0.2-10 mM, 1 mM H2O2 30 min, TM 5 μM, TG 10 nM 24 h or 1 μM 4 h, BreA 100 ng/mL, MG132, palmitate 0.2-0.5 mM, hIAPP 10 μM, 24 h, FIGS. 17-24): increased the median MEROS-GFP ratio in a dose-dependent manner
- Average MEROS-GFP ratio in the pilot screen ([6]; 0.2 mM DTT challenge for 2 hours, 96-well plates, untreated 0.037): 0.069 (S.D. =0.006)

Compound: C[C@H](CCC(=O)NCCS(=O)(=O)O)[C@H]1CC[C@H]2[C@@H]3[C@@H](O)C[C@@H]4C[C@H](O)CC[C@]4(C)[C@H]3CC[C@]12C [TUDCA, tauroursodeoxycholic acid]
- ER redox state (median MEROS-GFP ratio) [7]: shift the ER towards an oxidizing environment
- Cell death (percentage of dead cells) ([8]; 10 nM thapsigargin, 10 μM pioglitazone or 500 μg/mL TUDCA, FIG. 38 left panel): protect cells from death under ER stress conditions

Compound: CN1CCc2cccc3c2[C@H]1Cc1ccc(O)c(O)c1-3 [apomorphine]
- Cell death (percentage of dead cells) ([8]; 10 nM thapsigargin and 10 nM apomorphine, FIG. 43): protected INS-1 832/13 cells from ER stress-mediated cell death
- Population of cells that had reduced ER [9]: decreased the population of cells that had reduced ER
- Population with lower mitochondrial membrane potential [10]: decreased the population with lower mitochondrial membrane potential
- ER stress-induced cell death (propidium iodide) [11]: suppressed ER stress-induced cell death
- Thapsigargin-mediated cell death [12]: could protect human islets from thapsigargin-mediated cell death
- Cell death of WFS1-knockdown cells [13]: could protect WFS1-knockdown β-cells from cell death
- Cleavage of PARP (caspase 3 substrate) [13]: suppressed
- Cleavage of caspase 3 [13]: suppressed cleavage of caspase 3

Compound: COC1=CC(=O)C[C@@H](C)[C@]12Oc1c(Cl)c(OC)cc(OC)c1C2=O [griseofulvin]
- Outcome in the screening assays ([6]; DTT screen, 0.4 mM palmitate + 20 mM glucose screen, FACS confirmation with 0.5 mM palmitate): positively identified in the screening assays
- Toxic effects on cells [14]: strong toxic effects
